Measured values taken from patent US10800792B2, “Inhibitors of Bruton's tyrosine kinase and method of their use” (JANSSEN PHARMACEUTICA NV, priority 2015, dated 2020).

Biological target: unphosphorylated-BTK kinase domain (UP-BTK), GST-tagged human BTK (389-659aa) (Homo sapiens (Human), UniProt Q06187)
Experiment: BTK kinase Lanthascreen binding assay
Conditions: unphosphorylated-BTK kinase domain, 50 nM Tracer 236, 60 minutes; pIC50 = negative log of the IC50 in molar
Summary of the method: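 Values are pIC50, i.e. negative log of IC50 in molar, derived from concentration–response fitting. Each compound competes with a fluorescently labelled tracer for the unphosphorylated kinase domain.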

Sequence of unphosphorylated-BTK kinase domain (UP-BTK), GST-tagged human BTK (389-659aa) (Q06187 389-659): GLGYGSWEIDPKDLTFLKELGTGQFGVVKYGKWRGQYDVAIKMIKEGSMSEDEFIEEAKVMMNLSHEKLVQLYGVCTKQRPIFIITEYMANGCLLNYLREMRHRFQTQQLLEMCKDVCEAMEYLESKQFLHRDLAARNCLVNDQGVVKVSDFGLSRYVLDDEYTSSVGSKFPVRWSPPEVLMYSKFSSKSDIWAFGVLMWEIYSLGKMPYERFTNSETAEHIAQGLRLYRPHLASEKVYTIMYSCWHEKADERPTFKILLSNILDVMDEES

| BTK_I_binding pIC50 | SMILES |
| --- | --- |
| 5.7 | C=CC(=O)N1CCC[C@@H](NC(=O)c2sc3nccc4c3c2NC(=O)N4c2ccc3ccccc3c2)C1 [Example 419, (R)—N-(1-Acryloylpiperidin-3-yl)-5-(naphthalen-2-yl)-4-oxo-4,5-dihydro-3H-1-thia-3,5,8-triazaacenaphthylene-2-carboxamide] |
| 6.0 | C=CC(=O)N1CCC[C@@H](NC(=O)c2sc3nccc4c3c2NC(=O)N4c2ccn(Cc3ccccc3)n2)C1 [Example 420, (R)—N-(1-Acryloylpiperidin-3-yl)-5-(1-benzyl-1H-pyrazol-3-yl)-4-oxo-4,5-dihydro-3H-1-thia-3,5,8-triazaacenaphthylene-2-carboxamide] |
| 7.9 | C=CC(=O)N1CCC[C@@H](NC(=O)c2sc3nccc4c3c2NC(=O)N4c2cccc(-c3ccccc3)c2)C1 [Example 421, (R)-5-([1,1′-Biphenyl]-3-yl)-N-(1-acryloylpiperidin-3-yl)-4-oxo-4,5-dihydro-3H-1-thia-3,5,8-triazaacenaphthylene-2-carboxamide] |
| 6.3 | C=CC(=O)N1CCC[C@@H](NC(=O)c2sc3nccc4c3c2NC(=O)N4c2ccc(-c3ccccc3)cc2)C1 [Example 423, (R)-5-([1,1′-Biphenyl]-4-yl)-N-(1-acryloylpiperidin-3-yl)-4-oxo-4,5-dihydro-3H-1-thia-3,5,8-triazaacenaphthylene-2-carboxamide] |
| 7.3 | CN(C)CC(=O)N1CC[C@@H](NC(=O)c2sc3nccc4c3c2NC(=O)N4c2ccc(Oc3ccccc3)cc2)C1 [Example 425, (R)—N-(1-(2-(Dimethylamino)acetyl)pyrrolidin-3-yl)-4-oxo-5-(4-phenoxyphenyl)-4,5-dihydro-3H-1-thia-3,5,8-triazaacenaphthylene-2-carboxamide] |
| 6.9 | O=C(N[C@@H]1CCCNC1)c1sc2nccc3c2c1NC(=O)N3c1cccc(-c2ccccc2)c1 [Example 426, (R)-5-([1,1′-Biphenyl]-3-yl)-4-oxo-N-(piperidin-3-yl)-4,5-dihydro-3H-1-thia-3,5,8-triazaacenaphthylene-2-carboxamide] |
| 6.3 | C=CC(=O)N1CCC[C@@H](NC(=O)c2sc3nccc4c3c2NC(=O)N4c2cc3ccccc3s2)C1 [Example 427, (R)—N-(1-Acryloylpiperidin-3-yl)-5-(benzo[b]thiophen-2-yl)-4-oxo-4,5-dihydro-3H-1-thia-3,5,8-triazaacenaphthylene-2-carboxamide] |
| <5 | O=C(N[C@@H]1CCCNC1)c1sc2nccc3c2c1NC(=O)N3c1cc2ccccc2s1 [Example 428, (R)-5-(Benzo[b]thiophen-2-yl)-4-oxo-N-(piperidin-3-yl)-4,5-dihydro-3H-1-thia-3,5,8-triazaacenaphthylene-2-carboxamide] |
| <5 | O=C(N[C@@H]1CCCNC1)c1sc2nccc3c2c1NC(=O)N3c1ccc2ccccc2c1 [Example 429, (R)-5-(Naphthalen-2-yl)-4-oxo-N-(piperidin-3-yl)-4,5-dihydro-3H-1-thia-3,5,8-triazaacenaphthylene-2-carboxamide] |
| 7.6 | CN(C)C/C=C/C(=O)N1CC[C@@H](NC(=O)c2sc3nccc4c3c2NC(=O)N4c2ccc(Oc3ccccc3)cc2)C1 [Example 440, (R,E)-N-(1-(4-(Dimethylamino)but-2-enoyl)pyrrolidin-3-yl)-4-oxo-5-(4-phenoxyphenyl)-4,5-dihydro-3H-1-thia-3,5,8-triazaacenaphthylene-2-carboxamide] |
| 5.8 | Cc1cc(C(C)C)ccc1N1C(=O)Nc2c(C(=O)N[C@@H]3CCCNC3)sc3nccc1c23 [Example 446, (R)-5-(4-Isopropyl-2-methylphenyl)-4-oxo-N-(piperidin-3-yl)-4,5-dihydro-3H-1-thia-3,5,8-triazaacenaphthylene-2-carboxamide] |
| 5.6 | Cc1cc(C(C)C)ccc1N1C(=O)Nc2c(C(=O)N[C@@H]3CCCN(C)C3)sc3nccc1c23 [Example 447, (R)-5-(4-Isopropyl-2-methylphenyl)-N-(1-methylpiperidin-3-yl)-4-oxo-4,5-dihydro-3H-1-thia-3,5,8-triazaacenaphthylene-2-carboxamide] |
| 7.0 | C=CC(=O)N1CCC(CNC(=O)c2sc3nccc4c3c2NC(=O)N4c2ccc(Oc3ccccc3)cc2)C1 (stereo not shown) [Example 452, N-((1-Acryloylpyrrolidin-3-yl)methyl)-4-oxo-5-(4-phenoxyphenyl)-4,5-dihydro-3H-1-thia-3,5,8-triazaacenaphthylene-2-carboxamide] |
| <5 | O=C(N[C@@H]1CCCN(C(=O)n2ccnc2)C1)c1sc2nccc3c2c1NC(=O)N3c1ccc2c(c1)OC(F)(F)O2 [Example 454, (R)—N-(1-(1H-Imidazole-1-carbonyl)piperidin-3-yl)-5-(2,2-difluorobenzo[d][1.3]dioxol-5-yl)-4-oxo-4,5-dihydro-3H-1-thia-3,5,8-triazaacenaphthylene-2-carboxamide] |

Continued, molecule first:

| SMILES | BTK_I_binding pIC50 |
| --- | --- |
| C=CC(=O)N1CCC[C@@H](NC(=O)c2sc3nccc4c3c2NC(=O)N4c2ccc(Cc3ccccc3)cc2)C1 [Example 422, (R)—N-(1-Acryloylpiperidin-3-yl)-5-(4-benzylphenyl)-4-oxo-4,5-dihydro-3H-1-thia-3,5,8-triazaacenaphthylene-2-carboxamide] | 7.5 |
| CN(C)CC(=O)N1CCC[C@@H](NC(=O)c2sc3nccc4c3c2NC(=O)N4c2ccc(Oc3ccccc3)cc2)C1 [Example 424, (R)—N-(1-(2-(Dimethylamino)acetyl)piperidin-3-yl)-4-oxo-5-(4-phenoxyphenyl)-4,5-dihydro-3H-1-thia-3,5,8-triazaacenaphthylene-2-carboxamide] | 7.2 |
| O=C(N[C@@H]1CCCNC1)c1sc2nccc3c2c1NC(=O)N3c1ccc(Cc2ccccc2)cc1 [Example 430, (R)-5-(4-Benzylphenyl)-4-oxo-N-(piperidin-3-yl)-4,5-dihydro-3H-1-thia-3,5,8-triazaacenaphthylene-2-carboxamide] | 6.3 |
| O=C(N[C@@H]1CCCNC1)c1sc2nccc3c2c1NC(=O)N3c1ccn(Cc2ccccc2)n1 [Example 431, (R)-5-(1-Benzyl-1H-pyrazol-3-yl)-4-oxo-N-(piperidin-3-yl)-4,5-dihydro-3H-1-thia-3,5,8-triazaacenaphthylene-2-carboxamide] | <5 |
| Cc1cc(Oc2ccccc2)ccc1N1C(=O)Nc2c(C(=O)NC3(CO)CCOCC3)sc3nccc1c23 [Example 436, N-(4-(Hydroxymethyl)tetrahydro-2H-pyran-4-yl)-5-(*S)-(2-methyl-4-phenoxyphenyl)-4-oxo-4,5-dihydro-3H-1-thia-3,5,8-triazaacenaphthylene-2-carboxamide] | 7.3 |
| Cc1cc(Oc2ccccc2)ccc1N1C(=O)Nc2c(C(=O)NC3(CO)CCOCC3)sc3nccc1c23 [Example 437, N-(4-(Hydroxymethyl)tetrahydro-2H-pyran-4-yl)-5-(*R)-(2-methyl-4-phenoxyphenyl)-4-oxo-4,5-dihydro-3H-1-thia-3,5,8-triazaacenaphthylene-2-carboxamide] | 5.8 |
| C=CC(=O)N1CC[C@@H](NC(=O)c2sc3nccc4c3c2NC(=O)N4c2ccc(Oc3ccccc3)cc2)C1 [Example 443, (R)—N-(1-Acryloylpyrrolidin-3-yl)-4-oxo-5-(4-phenoxyphenyl)-4,5-dihydro-3H-1-thia-3,5,8-triazaacenaphthylene-2-carboxamide] | 7.7 |
| C=CC(=O)N1CCC[C@@H](NC(=O)c2sc3nccc4c3c2NC(=O)N4c2ccc(C(C)C)cc2C)C1 [Example 444, (R)—N-(1-Acryloylpiperidin-3-yl)-5-(4-isopropyl-2-methylphenyl)-4-oxo-4,5-dihydro-3H-1-thia-3,5,8-triazaacenaphthylene-2-carboxamide] | 7.2 |
| C=CC(=O)N1CC[C@@H](NC(=O)c2sc3nccc4c3c2NC(=O)N4c2ccc(C(C)C)cc2C)C1 [Example 445, (R)—N-(1-Acryloylpyrrolidin-3-yl)-5-(4-isopropyl-2-methylphenyl)-4-oxo-4,5-dihydro-3H-1-thia-3,5,8-triazaacenaphthylene-2-carboxamide] | 6.7 |
| O=C(NCC1CCNC1)c1sc2nccc3c2c1NC(=O)N3c1ccc(Oc2ccccc2)cc1 (stereo not shown) [Example 453, 4-Oxo-5-(4-phenoxyphenyl)-N-(pyrrolidin-3-ylmethyl)-4,5-dihydro-3H-1-thia-3,5,8-triazaacenaphthylene-2-carboxamide] | 6.4 |
| C=CC(=O)N1CCC[C@@H](NC(=O)c2sc3nccc4c3c2NC(=O)N4c2ccc(OC)c(C(F)(F)F)c2)C1 [Example 455, (R)—N-(1-Acryloylpiperidin-3-yl)-5-(4-methoxy-3-(trifluoromethyl)phenyl)-4-oxo-4,5-dihydro-3H-1-thia-3,5,8-triazaacenaphthylene-2-carboxamide] | <5 |
| C=CC(=O)N1CCC[C@@H](NC(=O)c2sc3nccc4c3c2NC(=O)N4c2ccc(OC3CCC3)cc2C)C1 [Example 456, (R)—N-(1-Acryloylpiperidin-3-yl)-5-(4-cyclobutoxy-2-methylphenyl)-4-oxo-4,5-dihydro-3H-1-thia-3,5,8-triazaacenaphthylene-2-carboxamide] | 7.7 |
| C=CC(=O)N1CCC[C@@H](NC(=O)c2sc3nccc4c3c2NC(=O)N4c2ccc(OC3CCC3)cc2)C1 [Example 457, (R)—N-(1-Acryloylpiperidin-3-yl)-5-(4-cyclobutoxyphenyl)-4-oxo-4,5-dihydro-3H-1-thia-3,5,8-triazaacenaphthylene-2-carboxamide] | 7.6 |
| O=C(NC1CCCNC1=O)c1sc2nccc3c2c1NC(=O)N3c1ccc(Oc2ccccc2)cc1 (stereo not shown) [Example 458, 4-Oxo-N-(2-oxopiperidin-3-yl)-5-(4-phenoxyphenyl)-4,5-dihydro-3H-1-thia-3,5,8-triazaacenaphthylene-2-carboxamide] | 6.2 |
